Source: US10335411B2, “Administration of ubiquitin-activating enzyme inhibitor and radiation” (Millennium Pharmaceuticals, Inc., priority 2014, dated 2019)
“And” between values parts separate entries of the source, which are not always exact repeats. Identical values can stand only once.

System: HCT-116 cells
Assay: In vitro colony formation assay
Type: cell-based
Conditions: after 10 days, replicate wells
Experimental: General Method: HCT-116 cells are grown in McCoy's 5A Medium supplemented with 10% fetal bovine serum. Cells are seeded (200/well) on a 12-well plate. The next day cells are treated with increasing concentrations of Compound 1 (in medium) and 2 hours later irradiated with 0, 2 or 4 gray. After an additional 6 hour, medium is replaced with and without (washout condition) Compound 1. After 10 days the number of colonies is counted and recorded. Radiator used is an X-ray irradiator (MBR-1520R-3, Hitachi Power Solutions Co., Ltd.).
Ten days following initiation of treatment, the number of HCT-116 colonies per well is counted using GelCount™ (Oxford Optronix Ltd.) and the raw data results are indicated in Table 6.

NS(=O)(=O)OC[C@H]1C[C@@H](Nc2ccnc3cc(-c4cccc(SC(F)(F)F)c4)nn23)[C@H](O)[C@@H]1O [Compound 1, ((1R,2R,3S,4R)-2,3-dihydroxy-4-(2-(3-(trifluoromethylthio)phenyl)pyrazolo[1,5-a]pyrimidin-7-ylamino)cyclopentyl)methyl sulfamate]
Number of Colonies/well (Washout No, Radiation 0 Gray, Compound 1 30 nM): 0 | Number of Colonies/well (Washout No, Radiation 0 Gray, Compound 1 100 nM): 0 | Number of Colonies/well (Washout No, Radiation 0 Gray, Compound 1 300 nM): 0 | Number of Colonies/well (Washout No, Radiation 2 Gray, Compound 1 30 nM): 0 | Number of Colonies/well (Washout No, Radiation 2 Gray, Compound 1 100 nM): 0 | Number of Colonies/well (Washout No, Radiation 2 Gray, Compound 1 300 nM): 0 | Number of Colonies/well (Washout No, Radiation 4 Gray, Compound 1 30 nM): 0 | Number of Colonies/well (Washout No, Radiation 4 Gray, Compound 1 100 nM): 0 | Number of Colonies/well (Washout No, Radiation 4 Gray, Compound 1 300 nM): 0 | Number of Colonies/well (Washout Yes, Radiation 0 Gray, Compound 1 30 nM): 20 (2×) and 26 | Number of Colonies/well (Washout Yes, Radiation 0 Gray, Compound 1 100 nM): 1 (2×) and 0 | Number of Colonies/well (Washout Yes, Radiation 0 Gray, Compound 1 300 nM): 0 | Number of Colonies/well (Washout Yes, Radiation 2 Gray, Compound 1 30 nM): 3 and 7 and 6 | Number of Colonies/well (Washout Yes, Radiation 2 Gray, Compound 1 100 nM): 0 | Number of Colonies/well (Washout Yes, Radiation 2 Gray, Compound 1 300 nM): 0 | Number of Colonies/well (Washout Yes, Radiation 4 Gray, Compound 1 30 nM): 1 (2×) and 4 | Number of Colonies/well (Washout Yes, Radiation 4 Gray, Compound 1 100 nM): 0 (2×) and 1 | Number of Colonies/well (Washout Yes, Radiation 4 Gray, Compound 1 300 nM): 0
